Source: US7807701B2, “Dibenzylamine compounds and pharmaceutical use thereof” (Japan Tobacco Inc., priority 2002, dated 2010)

Experiment: Concomitant use test with simvastatin in rabbits on high cholesterol food
Assay type: in vivo, Japanese white rabbits
Conditions: high cholesterol food for 15 days with simvastatin (0.002%) and/or Example 168 (0.2%), control group = 100%; for HDL3 cholesterol content (%): plasma HDL3 fraction; for ApoA-I content (%): plasma
Description: For the experiment, 10-week-old male Japanese white rabbits (manufactured by KITAYAMA LABES Co., Ltd.) were used. The animal was acclimated on normal food (RC-4, manufactured by Oriental Bio-Service Co.) and fasted for 24 hr and a high cholesterol food (0.25% cholesterol-added RC-4, manufactured by Oriental Bio-Service Co.) was given by 100 g/day per rabbit (preliminary feeding) for 3 days. On the next day of day 3 of preliminary feeding, blood was taken from the auricular artery before feeding, and the animals were grouped by 6 rabbits per group based on the parameters (HDL cholesterol content, total cholesterol content, triglyceride content) of plasma and body weight.
Foods were prepared (manufactured by Oriental Bio-Service Co.) by adding simvastatin (0.002%), compound (0.2%) of Example 168, or simvastatin (0.002%)+compound (0.2%) of Example 168 to a high cholesterol food, and each food was given to the grouped animals by 100 g/day per rabbit for 15 days. At 8 hr after feeding on day 15, the total blood was taken from the carotid artery under anesthesia, HDL cholesterol content, total cholesterol content and ApoA-I content in plasma were measured. The arteriosclerosis index was calculated from [(total cholesterol content-HDL cholesterol content)/HDL cholesterol content]. Furthermore, the HDL3 fraction was separated from plasma by ultracentrifugation and the cholesterol content of the fraction was measured. In Table, arteriosclerotic index, ApoA-1 content and HDL3 cholesterol content are shown based on the value of the control group as 100%.

Row | Compound | Arteriosclerotic index (%) | HDL3 cholesterol content (%) | ApoA-I content (%)
1 | CCN(C[C@H]1CC[C@H](CC(=O)O)CC1)c1cc(C)c(C(F)(F)F)cc1CN(Cc1cc(C(F)(F)F)cc(C(F)(F)F)c1)c1nnn(C)n1 [Example 168, trans-(4-{[N-(2-{[N′-[3,5-bis(trifluoromethyl)benzyl]-N′-(2-methyl-2H-tetrazol-5-yl)amino]methyl}-5-methyl-4-trifluoromethylphenyl)-N-ethylamino]methyl}cyclohexyl)acetic acid methanesulfonate] | 82 | 141 | 114
2 | CCC(C)(C)C(=O)O[C@H]1C[C@@H](C)C=C2C=C[C@H](C)[C@H](CC[C@@H]3C[C@@H](O)CC(=O)O3)[C@H]21 [simvastatin, reference compound] | 53 | 128 | 114
